This note sets out measurements from patent US7183092B2, “Modified luciferase” (priority 2003, dated 2007).

Entries after “also recorded” stand apart in the source; their conditions may differ. Bounds are passed on as bounds.

Format in all cases: biochemical, Photinus pyralis
The nature of data set [1]: Stability of CNBLuc03-02 luciferase activity in the presence of chloroform. As to conditions: 5% ethanol, 33 mM DTT, 10 μl cell lysates; for inhibition of luciferase activity by 0.8% CHCl3: 0.8% chloroform; for original activity maintained: FIG. 1, different concentrations of chloroform. Here is the method: (§1) The stability of CNBLuc03-02 luciferase (SEQ ID NO: 2) in the presence of a range of potential inhibitors was assayed. The basic assay contained 40 mM Tris-Acetate at pH 7.8, 1 mM MgSO4, 0.1 mM EDTA (ethylenediaminetetraacetic acid), 500 μM D-Luciferin and 500 μM ATP. Ethanol, DTT (dithiothreitol) and potential inhibitors were included at the concentrations stated.

Data set [2] can be described thus: Stability of CNBLuc03-02 luciferase activity in the presence of HPV solvents. To be noted: FIG. 2, 33 mM DTT, 10% ethanol; for inhibition of luciferase activity by toluene: 0.5% toluene. Here is the method:
as §1
Toluene inhibited CNBLuc03-02 luciferase (SEQ ID NO: 2) activity by approximately 40% and wild type luciferase activity by approximately 80%.

Data set [3] can be described thus: Stability of CNBLuc03-06 luciferase activity in the presence of HPV chemicals. To be noted: FIG. 3, 1 mM DTT, 2.5% ethanol. Here is the method: (§2) The stability of CNBLuc03-06 luciferase (SEQ ID NO: 4), both in purified form and in cell lysates, in the presence of a range of potential inhibitors was assayed. The basic assay contained 40 mM Tris-Acetate at pH 7.8, 1 mM MgSO4, 0.1 mM EDTA (ethylenediaminetetraacetic acid), 500 μM D-Luciferin and 500 μM ATP. Ethanol, DTT (dithiothreitol) and potential inhibitors were included at the concentrations stated.
This effect was confirmed by repeated experiments. With 20 ng purified CNBLuc03-06 luciferase (SEQ ID NO: 4) and in the presence of 2.5% ethanol, 1 mM DTT and 86 mM chloroform an activation of approximately 50% was measured, compared with the absence of chloroform.
The capacity of a variety HPV chemicals to inhibit or activate both wild type luciferase and CNBLuc03-06 luciferase (SEQ ID NO: 4) activity compared to controls without HPV chemicals was tested. Higher concentrations of chloroform (172 mM), methylene chloride (318 mM) or toluene (2.7 mM) were used. The basic assay contained 20ng of purified CNBLuc03-06, 1 mM DTT and 2.5% ethanol. CNBLuc03-06 luciferase (SEQ ID NO: 4) was exposed to each chemical for less than 5 minutes before measuring the light output.

The nature of data set [4]: Luciferase activity in the presence of nonionic detergent Triton X-100. As to conditions: FIG. 4; Triton X-100 up to 5%, 20 ng purified luciferase, 0% ethanol, 33 mM DTT. Here is the method:
as §2
(§3) The stability of CNBLuc03-06 luciferase (SEQ ID NO: 4) in the presence of Triton X-100 and SDS was determined using 20 ng of purified luciferase per sample using the basic assay conditions and in the presence of 0% ethanol and 33 mM DTT. The effect of detergents on wild type luciferase was determined previously by W. J. Simpson and J. R. M. Hammond (W. J. Simpson and J. R. M. Hammond, (1991) Journal of Bioluminescence & Chemiluminescence, 6. 97–106, incorporated herein by reference). They reported the anionic detergents inhibit luciferase activity, and cationic detergents and nonionic detergents increase the reaction rate when the concentration of detergent exceeds critical micelle concentration (CMC) value but only up to certain concentrations.

Data set [5] is described as follows: Luciferase activity in the presence of anionic detergent SDS. As to conditions: FIG. 5; 20 ng purified luciferase, 0% ethanol, 33 mM DTT. On the procedure: as §2, §3
SDS was used for testing the effect of anionic detergents.

The nature of data set [6]: Luciferase activity at different pHs. To be noted: up to pH 11. On the procedure:
20 ng of enzyme was used for each reaction. The pH was maintained at 7.8 by 40 mM Tris-acetate buffer and 33 mM DTT was added to each reaction. Both substrates, MGATP and D-Luciferin were saturated at 1 mM and 500 μM respectively. The values were normalized against the highest RLU (relative light units) at each pH optimum for comparison purpose. CNBLuc03-06 luciferase (SEQ ID NO: 4) has optimum pH of 9, but the high enough activity is retained at lower pHs in which enables us to use this mutant luciferase in case a wide range of pH is required for the assay (between 8–11).

Data set [7] in a line: Specific activity of luciferase in the absence of DTT. To be noted: 0 mM DTT, pH 7.8, 1 mM ATP, 500 μM D-Luciferin, three replicates. On the procedure:
Dithiothreitol (DTT) is an enzyme stabilizing agent used to reduce disulfide bonds (break the bonds) that are not normally formed under physiological conditions. Both purified wild type luciferase and CNBLuc03-06 luciferase (SEQ ID NO: 4) were diluted to 2 μg/ml in 40 mM Tris Acetate buffer at pH 7.8. The assay contained 40 mM Tris-Acetate at pH 7.8, 1 mM MgSO4, 0.1 mM EDTA, 500 μM D-Luciferin, 1 mM ATP, and 0 mM DTT. The light output was measured over time and three replicate measurements were made for each luciferase. The average value of the highest light output reading obtained over time was used to determine specific activity of each enzyme.

Data set [8] can be described thus: Quantitative in vitro screening of mutant luciferases with chloroform. As to conditions: cell lysate supernatant. On the procedure: Selected colonies from secondary screening were inoculated and grown in 5 ml LB broth containing 100 μg/ml ampicillin at 30° C. overnight. When the OD660 reached approximately 1, bacterial cells were harvested from 1.5 ml of culture by centrifugation for 3 min at 12,000 rpm (Eppendorf centrifuge model 5415D). Harvested cells were resuspended in 1 ml of 40 mM Tris-Acetate buffer, pH 7.8, and sonicated for 10 seconds using a Branson Sonifer 450, Duty cycle-40 and output control-4. The activity of each luciferase sample, prepared using 10 μl of supernatant from a subsequent centrifugation of sonicated bacterial cell culture, was tested in 200 μl total reaction volume by a Luminometer (Perkin Elmer, model Victor II). Each assay contained 40 mM Tris-Acetate, 1 mM MgSO4, 0.1 mM EDTA (ethylenediaminetetraacetic acid), 33 mM DTT (dithiothreitol), 500 μM D-Luciferin, 10% Ethanol and 500 μM ATP at pH 7.8. Some screening assays also contained 68.8 mM chloroform (0.8% vol.).
Different mutant luciferases were compared quantitatively by determining the percentage (%) inhibition of luciferase activity in the presence of chloroform relative to a control without chloroform. The specific activities of chloroform-tolerant mutants were generally lower as compared to wild type. […] The nucleotide sequence of CNBLuc03-02 is SEQ ID No: 1. The polypeptide sequence of the product of SEQ ID No: 1 is SEQ ID No: 2.

On to “wild type luciferase: amino acid sequence of luciferase of the species Photinus pyralis (SEQ ID NO: 6) [reference compound]”, for which, in data set [1], the “inhibition of luciferase activity by 0.8% CHCl3” value is “over 80%” and the original activity maintained result was “about 20%”. The “inhibition of luciferase activity by toluene” value in data set [2] (10 μl cell lysate) was “approximately 80%”. Also, the “inhibition compared to controls, chloroform” value in data set [3] (chloroform 172 mM, exposure less than 5 minutes) was “about 70%”. In addition, the “inhibition compared to controls, methylene chloride” value in data set [3] (methylene chloride 318 mM) was “about 70%”. In addition, in data set [3] (toluene 2.7 mM), the “inhibition compared to controls, toluene” value is recorded as “about 20%”. For the same molecule, in data set [4], the “effect of Triton X-100 on luciferase activity” value is “activated by the nonionic detergent, Triton X-100, up to final concentration of 1.25%; also recorded: increased until 1.25% then it started decreasing”. For the same molecule, the “effect of SDS on luciferase activity” value in data set [5] is on record as “inhibited luciferase activity significantly”. The “activity at elevated pH” value in data set [6] was “completely inhibit”. Besides, the “specific activity (highest light output)” value in data set [7] is reported as 2.9±1.6×10^9 RLU/mg enzyme/sec.

B1: CNBLuc03-02: modified Photinus pyralis luciferase: serine replaced by threonine at amino acid 239 and alanine replaced by threonine at amino acid 532 (protein, listed as Photinus pyralis)
chain: MEDAKNIKKGPAPFYPLEDGTAGEQLHKAMKRYALVPGTIAFTDAHIEVNITYAEYFEMSVRLAEAMKRYGLNTNHRIVVCSENSLQFFMPVLGALFIGVAVAPANDIYNERELLNSMNISQPTVVFVSKKGLQKILNVQKKLPIIQKIIIMDSKTDYQGFQSMYTFVTSHLPPGFNEYDFVPESFDRDKTIALIMNSSGSTGLPKGVALPHRTACVRFSHARDPIFGNQIIPDTAILTVVPFHHGFGMFTTLGYLICGFAVVLMYRFEEELFLRSLQDYKIQSALLVPTLFSFFAKSTLIDKYDLSNLHEIASGGAPLSKEVGEAVAKRFHLPGIRQGYGLTETTSAILITPEGDDKPGAVGKVVPFFEAKVVDLDTGKTLGVNQRGELCVRGPMIMSGYVNNPEATNALIDKDGWLHSGDIAYWDEDEHFFIVDRLKSLIKYKGYQVAPAELESILLQHPNIFDAGVAGLPDDDAGELPAAVVVLEHGKTMTEKEIVDYVASQVTTAKKFRGGVVFVDEVPKGLTGKLDTRKIREILIKAKKGGKSKL
Regarding B1, the “specific activity compared to wild type” value in data set [8] (screening assay) is “comparable activity”. Besides, the “inhibition of luciferase activity in the presence of chloroform relative to a control without chloroform” value in data set [8] (screening, 68.8 mM chloroform (0.8% vol.), 10% ethanol, 33 mM DTT) was “inhibited much less by chloroform”. In data set [1], the “inhibition of luciferase activity by 0.8% CHCl3” value is around 30% and the original activity maintained is 80%. Further, in data set [2] (0.5% of CH2Cl2, hexane, xylene or heptane, 10 μl cell lysate), the “inhibition of luciferase activity by HPV solvents other than toluene” value is at most 15%. Moreover, the “inhibition by HPV solvents compared with wild type” value in data set [2] (0.5% of each solvent (CH2Cl2, toluene, hexane, xylene, heptane)) is on record as “not inhibited as much as wild-type luciferase”. Moreover, the “inhibition of luciferase activity by toluene” value in data set [2] (10 μl cell lysate) is listed as “approximately 40%”.
